Measurements reported in ChEMBL document CHEMBL5303304, “EUbOPEN Chemogenomics Library - IncuCyte” (2023).
“And” between values parts separate entries of the source, which are not always exact repeats. Equal values may be shown once.

Key:
Type in all cases: toxicity, cell-based
U2OS = assay: Incucyte cell viability with U2OS; conditions: human, 10 µM, compound concentration 10 uM
HEK-293T = assay: Incucyte cell viability with HEK293T; conditions: human, 10 µM, compound concentration 10 uM
Fibroblast = assay: Incucyte cell viability with human fibroblast; conditions: 10 µM, compound concentration 10 uM
Further: unitless GR value; below 1 slowed growth and below 0 cell loss.

SMILES | Growth Rate (U2OS; 0 h, replicate number 2) | Growth Rate (U2OS; 6 h, replicate number 2) | Growth Rate (U2OS; 12 h, replicate number 1) | Growth Rate (U2OS; 18 h, replicate number 1) | Growth Rate (U2OS; 24 h, replicate number 1) | Growth Rate (HEK-293T; 6 h, replicate number 1) | Growth Rate (HEK-293T; 6 h, replicate number 2) | Growth Rate (HEK-293T; 12 h, replicate number 2) | Growth Rate (HEK-293T; 18 h, replicate number 1) | Growth Rate (HEK-293T; 18 h, replicate number 2) | Growth Rate (HEK-293T; 24 h, replicate number 1) | Growth Rate (Fibroblast; 6 h, replicate number 1) | Growth Rate (Fibroblast; 6 h, replicate number 2) | Growth Rate (Fibroblast; 12 h, replicate number 1) | Growth Rate (Fibroblast; 12 h, replicate number 2) | Growth Rate (Fibroblast; 18 h, replicate number 1) | Growth Rate (Fibroblast; 18 h, replicate number 2) | Growth Rate (Fibroblast; 24 h, replicate number 1) | Growth Rate (HEK-293T; 0 h, replicate number 2) | Growth Rate (Fibroblast; 0 h, replicate number 1) | also measured
COc1cc(N2CCC(N3CCN(C)CC3)CC2)ccc1Nc1ncc(Cl)c(Nc2ccccc2S(=O)(=O)C(C)C)n1 [TAE-684] | -0.18 | 0.84 | -0.09 | -0.06 | -0.15 | -0.99 | -0.4 | -0.16 | -0.8 | 0.06 | -0.72 | 0.37 | -0.99 | -0.98 | -0.28 | 0.29 | -0.21 | -0.12 |  |  | Growth Rate (U2OS; 6 h, replicate number 1): -0.18; Growth Rate (U2OS; 12 h, replicate number 2): 0.29; Growth Rate (U2OS; 18 h, replicate number 2): 0.27; Growth Rate (U2OS; 24 h, replicate number 2): 0.07; Growth Rate (HEK-293T; 12 h, replicate number 1): -0.93; Growth Rate (HEK-293T; 24 h, replicate number 2): 0.17; Growth Rate (Fibroblast; 24 h, replicate number 2): -0.32
N#Cc1ccc(COc2ccc(Br)cc2CNCCO)cn1.O=CO |  |  | 1 |  |  |  |  |  | 1 |  |  |  | 0.73 | 0.85 | 0.87 |  | 0.6 |  | 0.83 |  | Growth Rate (Fibroblast; 24 h, replicate number 2): 0.89
Cc1nnc2n1-c1sc3c(c1C(c1ccccc1Cl)=NC2)CC(C(=O)N1CCOCC1)C3 (stereo not given) [BEPAFANT] |  | 0.91 | 0.9 |  | 0.89 |  |  |  |  | 0.99 |  | 0.34 |  |  | 0.71 | 0.77 | 0.79 | 0.87 | 0 |  | Growth Rate (U2OS; 6 h, replicate number 1): 0.52; Growth Rate (HEK-293T; 0 h, replicate number 1): 0.58; Growth Rate (Fibroblast; 0 h, replicate number 2): -0.12; Growth Rate (Fibroblast; 24 h, replicate number 2): 0.92
COc1cc(-c2cc(-c3cccc(O)c3)cnc2N)cc(OC)c1OC |  |  | 0.89 | 0.73 | 0.75 | -0.66 | 0.38 | 0.41 | -0.43 | 0.33 | -0.24 | -0.21 |  | -1 |  | 0.59 |  |  |  | 0.1 | Growth Rate (U2OS; 12 h, replicate number 2): 0.96; Growth Rate (U2OS; 18 h, replicate number 2): 0.85; Growth Rate (U2OS; 24 h, replicate number 2): 0.86; Growth Rate (HEK-293T; 12 h, replicate number 1): -0.58; Growth Rate (HEK-293T; 24 h, replicate number 2): 0.42; Growth Rate (Fibroblast; 0 h, replicate number 2): -0.98
CN(C)C(=O)c1sc2nc(N3CCC(S(C)(=O)=O)CC3)cc(C(F)(F)F)c2c1N [BI-5026] |  |  | 0.88 and 0.68 | 0.84 | 0.88 and 0.97 | 0.88 and 0.51 | 0.65 | 0.99 | 0.86 and 0.6 | 0.85 | 0.97 and 0.77 |  |  |  |  |  |  |  | 0.24 | -1 | Growth Rate (U2OS; 6 h, replicate number 1): 0.38 and 0.65; Growth Rate (HEK-293T; 12 h, replicate number 1): 0.83 and 0.56; Growth Rate (HEK-293T; 24 h, replicate number 2): 0.98; Growth Rate (Fibroblast; 0 h, replicate number 2): -0.94
CC(C)(O)c1ccc2c(c1)ncn2-c1cccc(-c2ccccc2C#N)c1 | 0.83 |  |  |  |  | 0.78 | -0.24 | 0.2 | 0.65 | 0.48 | 0.73 |  | -0.67 | 0.43 | 0.33 | 0.64 | 0.52 | 0.28 |  | 0.6 | Growth Rate (U2OS; 0 h, replicate number 1): 0.93; Growth Rate (HEK-293T; 12 h, replicate number 1): 0.77; Growth Rate (HEK-293T; 24 h, replicate number 2): 0.54; Growth Rate (Fibroblast; 0 h, replicate number 2): -0.48
Cc1cc(C)nc(Nc2ncc(C(=O)NCCc3c(C)[nH]c4ccccc34)cn2)c1.Cl | 0.92 | 0.75 | 0.79 | 0.77 | 0.98 | 0.92 | 0.14 | 0.82 | 0.94 | 1 | 0.99 |  |  |  |  |  |  |  |  | -1 | Growth Rate (U2OS; 6 h, replicate number 1): 0.56; Growth Rate (U2OS; 12 h, replicate number 2): 0.87; Growth Rate (Fibroblast; 24 h, replicate number 2): 0.93
CC[C@@H](C(=O)OC)n1c(=O)c2ccccc2n(Cc2cn(C)c3cccc(C)c23)c1=O | 0.16 |  |  |  | 0.92 |  |  |  |  |  |  | 0.75 | -0.9 | 1 | 0.49 | 0.75 | 0.48 |  | -0.42 | -1 | Growth Rate (U2OS; 12 h, replicate number 2): 0.97; Growth Rate (U2OS; 18 h, replicate number 2): 0.96; Growth Rate (U2OS; 24 h, replicate number 2): 0.9
OC(CN1CCC(Cc2ccc(F)cc2)CC1)c1ccc(Cl)cc1 (stereo not given) [ELIPRODIL] | -0.72 |  |  |  |  |  |  |  | 0.88 |  |  | -0.61 | 0.5 | -0.13 |  |  |  |  | 0.62 |  | Growth Rate (U2OS; 12 h, replicate number 2): 0.95; Growth Rate (HEK-293T; 12 h, replicate number 1): 0.57; Growth Rate (Fibroblast; 0 h, replicate number 2): -0.95
COc1ccc(CC[C@@H](OC(=O)[C@H]2CCCCN2C(=O)[C@@H](c2cc(OC)c(OC)c(OC)c2)C2CCCCC2)c2cccc(OCCN3CCOCC3)c2)cc1OC | -1 | -0.94 |  | 0.98 |  |  |  | 0.72 |  | 0.52 | 0.74 |  |  |  |  |  |  | 0.99 | -0.05 | -0.89 | Growth Rate (U2OS; 18 h, replicate number 2): 0.99; Growth Rate (U2OS; 24 h, replicate number 2): 0.87; Growth Rate (HEK-293T; 24 h, replicate number 2): 0.49
Cc1ccccc1C1C(=O)N(C)c2cnc(Nc3ccc(S(N)(=O)=O)cc3)nc2N1C (stereo not given) | -0.83 |  |  |  |  |  |  |  |  |  |  | -1 |  |  |  |  |  |  | -0.88 | -0.58 | Growth Rate (U2OS; 0 h, replicate number 1): -0.73; Growth Rate (HEK-293T; 0 h, replicate number 1): -0.37; Growth Rate (Fibroblast; 0 h, replicate number 2): -0.9
c1ccc2nc(N3CCNCC3)ccc2c1 [QUIPAZINE] |  | 0.58 | 0.55 | 0.94 |  | 0.43 | 0.5 | 0.95 |  |  |  | 0.27 | 0.04 | -0.91 | 0.92 | 0.52 | 0.72 | 0.85 |  | 0.15 | Growth Rate (U2OS; 0 h, replicate number 1): -0.85; Growth Rate (Fibroblast; 0 h, replicate number 2): 0.79; Growth Rate (Fibroblast; 24 h, replicate number 2): 0.58
Cn1cc(-c2ccc(N(C(=O)NCc3ccccc3)[C@H]3CC[C@H](Nc4ccc(C#N)cn4)CC3)cc2)ccc1=O |  | 0.58 | 0.28 | 0.12 | -0.14 | -0.2 | -0.56 | -0.56 | -0.21 | -0.48 | -0.14 | 0.65 | 0.48 | 0.45 | -0.01 | 0.17 | -0.04 | 0.16 | 0.96 | 0.84 | Growth Rate (U2OS; 6 h, replicate number 1): 0.45; Growth Rate (U2OS; 18 h, replicate number 2): 0.06; Growth Rate (U2OS; 24 h, replicate number 2): -0.05; Growth Rate (HEK-293T; 0 h, replicate number 1): -0.73; Growth Rate (HEK-293T; 12 h, replicate number 1): -0.28; Growth Rate (HEK-293T; 24 h, replicate number 2): -0.39; Growth Rate (Fibroblast; 0 h, replicate number 2): -0.77; Growth Rate (Fibroblast; 24 h, replicate number 2): -0.08
Cl.NC(=O)c1ccccc1Nc1nc(-c2ccc(N3CCOCC3)cc2)cc2ncccc12 | 0.86 | 0.39 | 0.57 | 0.62 | 0.66 | -0.65 | -0.55 | -0.36 | -0.2 | -0.24 | -0.11 | -0.14 | -0.47 | 0.05 | -0.21 | 0.13 | -0.14 | 0.07 | -1 |  | Growth Rate (U2OS; 6 h, replicate number 1): 0.76; Growth Rate (U2OS; 12 h, replicate number 2): 0.32; Growth Rate (U2OS; 18 h, replicate number 2): 0.25; Growth Rate (U2OS; 24 h, replicate number 2): 0.24; Growth Rate (HEK-293T; 12 h, replicate number 1): -0.4; Growth Rate (Fibroblast; 24 h, replicate number 2): -0.07
CCCCCCCC/C=C\CCCCCCCC(=O)NCCO [OLEOYLETHANOLAMIDE] | 0.62 | 0.54 | 0.87 | 0.81 | 0.79 |  | 0.43 | 0.83 |  | 0.75 |  | 0.19 |  | 0.64 | 0.96 | 0.35 |  | 0.78 |  |  | Growth Rate (U2OS; 0 h, replicate number 1): -0.18; Growth Rate (U2OS; 6 h, replicate number 1): 0.87; Growth Rate (U2OS; 12 h, replicate number 2): 0.68; Growth Rate (U2OS; 18 h, replicate number 2): 0.74; Growth Rate (U2OS; 24 h, replicate number 2): 0.76; Growth Rate (HEK-293T; 0 h, replicate number 1): -0.38; Growth Rate (HEK-293T; 24 h, replicate number 2): 0.62; Growth Rate (Fibroblast; 24 h, replicate number 2): 0.98
